Assays:
Type in all cases: in vivo
[1] = system: Beet Armyworm (Spodoptera exigua, LAPHEG); assay: Bioassays on Beet Armyworm (BAW), 128-well diet tray assay; settings: Spodoptera exigua; Table ABC: Biological Results; species BAW; read-out: BAW
Procedure, shortened: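 Second-instar larvae, one to five per well, were placed on artificial diet surface-treated with 50 μg/cm^2 compound in 90:10 acetone-water, eight wells per treatment. Trays were held 5–7 days at 25 °C, 14:10 light-dark. Percent mortality per well was averaged over eight wells.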

[2] = system: Cabbage Looper (Trichoplusia ni, TRIPNI); assay: Bioassays on Cabbage Looper (CL), 128-well diet tray assay; settings: Trichoplusia ni; Table ABC: Biological Results; species CL; read-out: CL
Procedure, shortened: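 Percent mortality, averaged across eight replicate wells, after second-instar larvae (1–5 per well) fed for five to seven days on diet dosed at 50 μg/cm^2. Compound was applied in acetone-water 90:10 and dried; trays kept vented at 25° C under 14:10 photoperiod.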

[3] = system: Yellow Fever Mosquito (Aedes aegypti, AEDSAE); settings: Table ABC: Biological Results; species YFM
Procedure, shortened: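 Compounds from 4000 ppm DMSO stocks were diluted in 90:10 water/acetone and dispensed into wells, then infested with about 1-day-old larvae in liver-powder water. Covered plates were held at room temperature for 3 days and each well was scored for mortality against a rating scale; six replicate plates per compound.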

Structure (SMILES) | pest or weed control at 50 µg/cm2 [1] [%] | pest or weed control at 50 µg/cm2 [2] [%] | YFM [3]
N#CC1(C(=O)Nc2c(F)ccc(NC(=O)c3cc(NC(=O)[C@H]4[C@H](c5ccc(F)c(C(F)(F)F)c5)C4(Cl)Cl)ccc3Cl)c2F)CC1 [F1263, 2-Chloro-N-(3-(1-cyanocyclopropane-1-carboxamido)-2,4-difluorophenyl)-5-((1R,3R)-2,2-dichloro-3-(4-fluoro-3-(trifluoromethyl)phenyl)cyclopropane-1-carboxamido)benzamide] | 50 to 100 | 50 to 100 | A (80–100)
O=C(Nc1ccc(F)c(NC(=O)C2CC2)c1F)c1cc(NC(=O)[C@H]2[C@H](c3ccc(F)c(C(F)(F)F)c3)C2(Cl)Cl)ccc1Cl [F1264, 2-Chloro-N-(3-(cyclopropanecarboxamido)-2,4-difluorophenyl)-5-((1R,3R)-2,2-dichloro-3-(4-fluoro-3-(trifluoromethyl)phenyl)cyclopropane-1-carboxamido)benzamide] | 50 to 100 | 50 to 100 | A (80–100)
O=C(Nc1ccc(F)c(NC(=O)C(F)F)c1F)c1cc(NC(=O)[C@H]2[C@H](c3ccc(F)c(Cl)c3)C2(Cl)Cl)ccc1Cl [F1270, 2-Chloro-5-((1R,3R)-2,2-dichloro-3-(3-chloro-4-fluorophenyl)cyclopropane-1-carboxamido)-N-(3-(2,2-difluoroacetamido)-2,4-difluorophenyl)benzamide] | 50 to 100 | 50 to 100 | A (80–100)
CN(C(=O)C(F)F)c1c(F)ccc(NC(=O)c2cc(NC(=O)[C@H]3[C@H](c4ccc(Cl)c(Cl)c4)C3(Cl)Cl)ccc2Cl)c1F [F1271, 2-Chloro-5-((1R,3R)-2,2-dichloro-3-(3,4-dichlorophenyl)cyclopropane-1-carboxamido)-N-(3-(2,2-difluoro-N-methylacetamido)-2,4-difluorophenyl)benzamide] | 50 to 100 | 50 to 100 | A (80–100)
CC1(C(=O)Nc2c(F)ccc(NC(=O)c3cc(NC(=O)[C@H]4[C@H](c5ccc(F)c(C(F)(F)F)c5)C4(Cl)Cl)ccc3Cl)c2F)CC1(Cl)Cl (stereo partly drawn) [F1273, 2-Chloro-N-(3-(2,2-dichloro-1-methylcyclopropane-1-carboxamido)-2,4-difluorophenyl)-5-((1R,3R)-2,2-dichloro-3-(4-fluoro-3-(trifluoromethyl)phenyl)cyclopropane-1-carboxamido)benzamide] | 50 to 100 | 50 to 100 | A (80–100)
O=C(Nc1ccc(F)c(NC(=O)C2CC2(F)F)c1F)c1cc(NC(=O)[C@H]2[C@H](c3ccc(F)c(C(F)(F)F)c3)C2(Cl)Cl)ccc1Cl (stereo partly drawn) [F1275, 2-Chloro-5-((1R,3R)-2,2-dichloro-3-(4-fluoro-3-(trifluoromethyl)phenyl)cyclopropane-1-carboxamido)-N-(3-(2,2-difluorocyclopropane-1-carboxamido)-2,4-difluorophenyl)benzamide] | 50 to 100 | 50 to 100 | A (80–100)
O=C(Nc1ccc(F)c(NC(=O)C(F)(F)Br)c1F)c1cc(NC(=O)[C@H]2[C@H](c3ccc(F)c(C(F)(F)F)c3)C2(Cl)Cl)ccc1Cl [F1276, N-(3-(2-Bromo-2,2-difluoroacetamido)-2,4-difluorophenyl)-2-chloro-5-((1R,3R)-2,2-dichloro-3-(4-fluoro-3-(trifluoromethyl)phenyl)cyclopropane-1-carboxamido)benzamide] | 50 to 100 | 50 to 100 | A (80–100)
CS(=O)(=O)N(c1c(F)ccc(NC(=O)c2cc(NC(=O)[C@H]3[C@H](c4ccc(F)c(C(F)(F)F)c4)C3(Cl)Cl)ccc2Cl)c1F)S(C)(=O)=O [F1277, 2-chloro-5-((1R,3R)-2,2-dichloro-3-(4-fluoro-3-(trifluoromethyl)phenyl)cyclopropane-1-carboxamido)-N-(2,4-difluoro-3-(N-(methylsulfonyl)methylsulfonamido)phenyl)benzamide] | 50 to 100 | 50 to 100 | A (80–100)
O=C(Nc1ccc(F)c(NS(=O)(=O)c2ccccc2)c1F)c1cc(NC(=O)[C@H]2[C@H](c3ccc(F)c(C(F)(F)F)c3)C2(Cl)Cl)ccc1Cl [F1295, 2-chloro-5-((1R,3R)-2,2-dichloro-3-(4-fluoro-3-(trifluoromethyl)phenyl)cyclopropane-1-carboxamido)-N-(2,4-difluoro-3-(phenylsulfonamido)phenyl)benzamide] | 50 to 100 | 50 to 100 | A (80–100)
O=C(Nc1ccc(F)c(NC(=O)C2CC=CCC2)c1F)c1cc(NC(=O)[C@H]2[C@H](c3ccc(F)c(C(F)(F)F)c3)C2(Cl)Cl)ccc1Cl (stereo partly drawn) [F1297, 2-Chloro-N-(3-(cyclohex-3-ene-1-carboxamido)-2,4-difluorophenyl)-5-((1R,3R)-2,2-dichloro-3-(4-fluoro-3-(trifluoromethyl)phenyl)cyclopropane-1-carboxamido)benzamide] | 50 to 100 | 50 to 100 | A (80–100)
O=C(Nc1c(F)ccc(NC(=O)c2cc(NC(=O)[C@H]3[C@H](c4ccc(F)c(C(F)(F)F)c4)C3(Cl)Cl)ccc2Cl)c1F)C(=O)c1ccccc1 [F1298, 2-Chloro-5-((1R,3R)-2,2-dichloro-3-(4-fluoro-3-(trifluoromethyl)phenyl)cyclopropane-1-carboxamido)-N-(2,4-difluoro-3-(2-oxo-2-phenylacetamido)phenyl)benzamide] | 50 to 100 | 50 to 100 | A (80–100)
CS(=O)(=O)CC(=O)Nc1c(F)ccc(NC(=O)c2cc(NC(=O)[C@H]3[C@H](c4ccc(F)c(C(F)(F)F)c4)C3(Cl)Cl)ccc2Cl)c1F [F1299, 2-Chloro-5-((1R,3R)-2,2-dichloro-3-(4-fluoro-3-(trifluoromethyl)phenyl)cyclopropane-1-carboxamido)-N-(2,4-difluoro-3-(2-(methylsulfonyl)acetamido)phenyl)benzamide] | 50 to 100 | 50 to 100 | A (80–100)
O=C(Nc1c(F)ccc(NC(=O)c2cc(NC(=O)[C@H]3[C@H](c4ccc(F)c(C(F)(F)F)c4)C3(Cl)Cl)ccc2Cl)c1F)c1ccco1 [F1300, N-(3-(2-Chloro-5-((1R,3R)-2,2-dichloro-3-(4-fluoro-3-(trifluoromethyl)phenyl)cyclopropane-1-carboxamido)benzamido)-2,6-difluorophenyl)furan-2-carboxamide] | 50 to 100 | 50 to 100 | A (80–100)
O=C(Nc1ccc(F)c(NC(=O)C(F)(F)C(F)F)c1F)c1cc(NC(=O)[C@H]2[C@H](c3ccc(F)c(C(F)(F)F)c3)C2(Cl)Cl)ccc1Cl [F1301, 2-Chloro-5-((1R,3R)-2,2-dichloro-3-(4-fluoro-3-(trifluoromethyl)phenyl)cyclopropane-1-carboxamido)-N-(2,4-difluoro-3-(2,2,3,3-tetrafluoropropanamido)phenyl)benzamide] | 50 to 100 | 50 to 100 | A (80–100)
O=C1CC(C(=O)Nc2c(F)ccc(NC(=O)c3cc(NC(=O)[C@H]4[C@H](c5ccc(F)c(C(F)(F)F)c5)C4(Cl)Cl)ccc3Cl)c2F)C1 [F1303, 2-Chloro-5-((1R,3R)-2,2-dichloro-3-(4-fluoro-3-(trifluoromethyl)phenyl)cyclopropane-1-carboxamido)-N-(2,4-difluoro-3-(3-oxocyclobutane-1-carboxamido)phenyl)benzamide] | 50 to 100 | 50 to 100 | A (80–100)
CC(Cl)(Cl)C(=O)Nc1c(F)ccc(NC(=O)c2cc(NC(=O)[C@H]3[C@H](c4ccc(F)c(C(F)(F)F)c4)C3(Cl)Cl)ccc2Cl)c1F [F1351, 2-Chloro-5-((1R,3R)-2,2-dichloro-3-(4-fluoro-3-(trifluoromethyl)phenyl)cyclopropane-1-carboxamido)-N-(3-(2,2-dichloropropanamido)-2,4-difluorophenyl)benzamide] | 50 to 100 | 50 to 100 | A (80–100)
CC(F)(F)C(=O)Nc1c(F)ccc(NC(=O)c2cc(NC(=O)[C@H]3[C@H](c4ccc(F)c(C(F)(F)F)c4)C3(Cl)Cl)ccc2Cl)c1F [F1352, 2-Chloro-5-((1R,3R)-2,2-dichloro-3-(4-fluoro-3-(trifluoromethyl)phenyl)cyclopropane-1-carboxamido)-N-(3-(2,2-difluoropropanamido)-2,4-difluorophenyl)benzamide] | 50 to 100 | 50 to 100 | A (80–100)
CC(C)(Br)C(=O)Nc1c(F)ccc(NC(=O)c2cc(NC(=O)[C@H]3[C@H](c4ccc(F)c(C(F)(F)F)c4)C3(Cl)Cl)ccc2Cl)c1F [F1354, N-(3-(2-Bromo-2-methylpropanamido)-2,4-difluorophenyl)-2-chloro-5-((1R,3R)-2,2-dichloro-3-(4-fluoro-3-(trifluoromethyl)phenyl)cyclopropane-1-carboxamido)benzamide] | 50 to 100 | 50 to 100 | A (80–100)
